Measured values reported in patent US6472348B1, “Pyridone derivatives and herbicides” (Kumiai Chemical Industry Co., Ltd., priority 1996, dated 2002).

Key:
rice flatsedge (Ci) [1] = assay: Test Example 3: herbicidal effects by upland field foliage treatment; assay type: in vivo; parameters: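 grade of growth control; 5 = at least 90%; 4 = 70 to 90%; 3 = 50 to 70%; 2 = 30 to 50%; 1 = 10 to 30%; 0 = under 10%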
Summary of the method: (§1)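 Two-week-old greenhouse seedlings, raised in sand-filled pots (120 cm^2) with seed covered by soil, receive a foliar application. Effects are then evaluated by standard grades 14 days later, plants remaining in the greenhouse meanwhile.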

[2] = system: common lambsquarters (Ch); assay: as above; assay type: in vivo; parameters: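 grade of growth control; 5 = at least 90%; 4 = 70 to 90%; 3 = 50 to 70%; 2 = 30 to 50%; 1 = 10 to 30%; 0 = under 10%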
Summary of the method: as §1

slender amaranth (Am) [3] = assay: as above; assay type: in vivo; parameters: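 grade of growth control; 5 = at least 90%; 4 = 70 to 90%; 3 = 50 to 70%; 2 = 30 to 50%; 1 = 10 to 30%; 0 = under 10%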
Summary of the method: as §1

Diaitaria ciliaris (Di) = assay: as above; assay type: in vivo; parameters: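 grade of growth control; 5 = at least 90%; 4 = 70 to 90%; 3 = 50 to 70%; 2 = 30 to 50%; 1 = 10 to 30%; 0 = under 10%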
Summary of the method: as §1

pale smartweed (Po) [4] = assay: as above; assay type: in vivo; parameters: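 grade of growth control; 5 = at least 90%; 4 = 70 to 90%; 3 = 50 to 70%; 2 = 30 to 50%; 1 = 10 to 30%; 0 = under 10%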
Summary of the method: as §1

barnyardgrass (Ec) [5] = assay: as above; assay type: in vivo; parameters: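 grade of growth control; 5 = at least 90%; 4 = 70 to 90%; 3 = 50 to 70%; 2 = 30 to 50%; 1 = 10 to 30%; 0 = under 10%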
Summary of the method: as §1

rice flatsedge (Ci) [6] = assay: Test Example 2: herbicidal effects by upland field soil treatment; assay type: in vivo; settings: 100 g of the active ingredient per 10 ares;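 further: grade of growth control; 5 = at least 90%; 4 = 70 to 90%; 3 = 50 to 70%; 2 = 30 to 50%; 1 = 10 to 30%; 0 = under 10%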
Description: (§2) (Test on Herbicidal Effects by Upland Field Soil Treatment)

Digitaria ciliaris (Di) = assay: as above; assay type: in vivo; settings: 100 g of the active ingredient per 10 ares;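 further: grade of growth control; 5 = at least 90%; 4 = 70 to 90%; 3 = 50 to 70%; 2 = 30 to 50%; 1 = 10 to 30%; 0 = under 10%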
Description: as §2

[7] = system: common lambsquarters (Ch); assay: as above; assay type: in vivo; settings: 100 g of the active ingredient per 10 ares
Description: as §2

slender amaranth (Am) [8] = assay: as above; assay type: in vivo; settings: 100 g of the active ingredient per 10 ares
Description: as §2

pale smartweed (Po) [9] = assay: as above; assay type: in vivo; settings: 100 g of the active ingredient per 10 ares
Description: as §2

barnyardgrass (Ec) [10] = assay: as above; assay type: in vivo; settings: 100 g of the active ingredient per 10 ares
Description: as §2

monochoria (Mo) = assay: Test Example 1: herbicidal effects by paddy field soil treatment; assay type: in vivo; settings: 100 g of the active ingredient per 10 ares, 21st day after the application, index 0-5 of Table 47;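 further: grade of growth control; 5 = at least 90%; 4 = 70 to 90%; 3 = 50 to 70%; 2 = 30 to 50%; 1 = 10 to 30%; 0 = under 10%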
Summary of the method: (§3)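 Greenhouse pot test in flooded paddy soil, dosed at 100 g a.i. per 10 ares; effect scored on day 21.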

barnyardgrass (Ec) [11] = assay: as above; assay type: in vivo; settings: 100 g of the active ingredient per 10 ares, 21st day after the application, index 0-5 of Table 47
Summary of the method: as §3

bulrush (Sc) = assay: as above; assay type: in vivo; settings: 100 g of the active ingredient per 10 ares, 21st day after the application, index 0-5 of Table 47;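 further: grade of growth control; 5 = at least 90%; 4 = 70 to 90%; 3 = 50 to 70%; 2 = 30 to 50%; 1 = 10 to 30%; 0 = under 10%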
Summary of the method: as §3

[12] = 100 g of the active ingredient per 10 ares, evaluated on the 14th day after treatment
[13] = 21st day after the application, index 0-5 of Table 47
[14] = evaluated on the 21st day after application
[15] = 100 g active ingredient per 10 ares, evaluated 14th day after treatment

Cn1c(C(F)(F)F)ccc(-c2ccc(Cl)cc2F)c1=O [Compound No. 1-2, 3-(4-chloro-2-fluorophenyl)-1-methyl-6-trifluoromethyl-2(1H)-pyridone]
Herbicidal effects Ci (rice flatsedge (Ci) [1]; [12]): 5 | Herbicidal effects Ch [2, 12]: 5 | Herbicidal effects Am (slender amaranth (Am) [3]; [12]): 5 | Herbicidal effects Di (Diaitaria ciliaris (Di); [12]): 5 | Herbicidal effects Po (pale smartweed (Po) [4]; [12]): 5 | Herbicidal effects Ec (barnyardgrass (Ec) [5]; [12]): 5 | Herbicidal effects Ci (rice flatsedge (Ci) [6]; [13]): 5 | Herbicidal effects Di (Digitaria ciliaris (Di); [13]): 5 | Herbicidal effects Ch [7, 13]: 5 | Herbicidal effects Am (slender amaranth (Am) [8]; [13]): 5 | Herbicidal effects Po (pale smartweed (Po) [9]; [13]): 5 | Herbicidal effects Ec (barnyardgrass (Ec) [10]; [13]): 5 | melting point: 103 to 104 °C | Herbicidal effects Mo (monochoria (Mo)): 5 | Herbicidal effects Ec (barnyardgrass (Ec) [11]): 5 | Herbicidal effects Sc (bulrush (Sc)): 5

Nn1c(C(F)(F)F)ccc(-c2ccc(Cl)cc2Cl)c1=O [Compound No. 1-5, 1-amino-3-(2,4-dichlorophenyl)-6-trifluoromethyl-2(1H)-pyridone]
Herbicidal effects Ci (rice flatsedge (Ci) [1]; [12]): 5 | Herbicidal effects Ch [2, 12]: 5 | Herbicidal effects Am (slender amaranth (Am) [3]; [12]): 5 | Herbicidal effects Di (Diaitaria ciliaris (Di); [12]): 5 | Herbicidal effects Po (pale smartweed (Po) [4]; [12]): 5 | Herbicidal effects Ec (barnyardgrass (Ec) [5]; [12]): 5 | Herbicidal effects Ci (rice flatsedge (Ci) [6]; [13]): 5 | Herbicidal effects Di (Digitaria ciliaris (Di); [13]): 5 | Herbicidal effects Ch [7, 13]: 5 | Herbicidal effects Am (slender amaranth (Am) [8]; [13]): 5 | Herbicidal effects Po (pale smartweed (Po) [9]; [13]): 5 | Herbicidal effects Ec (barnyardgrass (Ec) [10]; [13]): 5 | melting point: 98 to 100 °C | Herbicidal effects Mo (monochoria (Mo)): 5 | Herbicidal effects Ec (barnyardgrass (Ec) [11]): 5 | Herbicidal effects Sc (bulrush (Sc)): 5

Cn1c(C(F)(F)F)ccc(-c2ccc(F)cc2F)c1=O [Compound No. 1-12, 3-(2,4-difluorophenyl)-1-methyl-6-trifluoromethyl-2(1H)-pyridone]
melting point: 123 to 124 °C | Herbicidal effects Mo (monochoria (Mo)): 5 | Herbicidal effects Ec (barnyardgrass (Ec) [11]): 5 | Herbicidal effects Sc (bulrush (Sc)): 5

Cn1c(C(F)(F)F)ccc(-c2cc([N+](=O)[O-])c(Cl)cc2F)c1=O [Compound No. 1-58, 3-(4-chloro-2-fluoro-5-nitrophenyl)-1-methyl-6-trifluoromethyl-2(1H)-pyridone]
melting point: 139 to 140 °C | Herbicidal effects Mo (monochoria (Mo)): 5 | Herbicidal effects Ec (barnyardgrass (Ec) [11]): 5 | Herbicidal effects Sc (bulrush (Sc)): 5

Cn1c(C(F)(F)F)ccc(-c2cc(S(C)(=O)=O)c(Cl)cc2F)c1=O [Compound No. 1-73, 3-(4-chloro-2-fluoro-5-methylsulfonylphenyl)-1-methyl-6-trifluoromethyl-2(1H)-pyridone]
Herbicidal effects Ci (rice flatsedge (Ci) [6]; [13]): 5 | Herbicidal effects Di (Digitaria ciliaris (Di); [13]): 5 | Herbicidal effects Ch [7, 13]: 5 | Herbicidal effects Am (slender amaranth (Am) [8]; [13]): 5 | Herbicidal effects Po (pale smartweed (Po) [9]; [13]): 5 | Herbicidal effects Ec (barnyardgrass (Ec) [10]; [13]): 4 | melting point: 144 to 145 °C | Herbicidal effects Mo (monochoria (Mo)): 5 | Herbicidal effects Ec (barnyardgrass (Ec) [11]): 5 | Herbicidal effects Sc (bulrush (Sc)): 5

Cn1c(C(F)(F)F)ccc(-c2cc(S(=O)(=O)Cl)c(Cl)cc2F)c1=O [Compound No. 1-84, 3-(4-chloro-5-chlorosulfonyl-2-fluorophenyl)-1-methyl-6-trifluoromethyl-2(1H)-pyridone]
Herbicidal effects Ci (rice flatsedge (Ci) [1]; [12]): 5 | Herbicidal effects Ch [2, 12]: 5 | Herbicidal effects Am (slender amaranth (Am) [3]; [12]): 5 | Herbicidal effects Di (Diaitaria ciliaris (Di); [12]): 5 | Herbicidal effects Po (pale smartweed (Po) [4]; [12]): 5 | Herbicidal effects Ec (barnyardgrass (Ec) [5]; [12]): 5 | melting point: 77 to 78 °C

Cn1c(C(F)(F)F)ccc(-c2cc([S+](C)[O-])c(Cl)cc2F)c1=O (stereo not drawn) [Compound No. 1-88, 3-(4-chloro-2-fluoro-5-methylsulfinylphenyl)-1-methyl-6-trifluoromethyl-2(1H)-pyridone]
Herbicidal effects Ci (rice flatsedge (Ci) [6]; [13]): 5 | Herbicidal effects Di (Digitaria ciliaris (Di); [13]): 5 | Herbicidal effects Ch [7, 13]: 5 | Herbicidal effects Am (slender amaranth (Am) [8]; [13]): 5 | Herbicidal effects Po (pale smartweed (Po) [9]; [13]): 5 | Herbicidal effects Ec (barnyardgrass (Ec) [10]; [13]): 4 | melting point: 147 to 148 °C | Herbicidal effects Mo (monochoria (Mo)): 5 | Herbicidal effects Ec (barnyardgrass (Ec) [11]): 5 | Herbicidal effects Sc (bulrush (Sc)): 5

Cn1c(C(F)(F)F)ccc(-c2cc([N+](=O)[O-])c(F)cc2F)c1=O [Compound No. 1-100, 3-(2,4-difluoro-5-nitrophenyl)-1-methyl-6-trifluoromethyl-2(1H)-pyridone]
melting point: 115 to 118 °C

C#CCn1c(=O)oc2cc(Cl)c(-c3ccc(C(F)(F)F)n(C)c3=O)cc21 [Compound No. 3-9, 3-[6-chloro-3-(2-propynyl)-benzoxazolin-2-on-5-yl]-1-methyl-6-trifluoromethyl-2(1H)-pyridone]
Herbicidal effects Ci (rice flatsedge (Ci) [6]; [14]): 5 | Herbicidal effects Di (Digitaria ciliaris (Di); [14]): 5 | Herbicidal effects Ch [7, 14]: 5 | Herbicidal effects Am (slender amaranth (Am) [8]; [14]): 5 | Herbicidal effects Po (pale smartweed (Po) [9]; [14]): 5 | Herbicidal effects Ec (barnyardgrass (Ec) [10]; [14]): 5 | melting point: 187 to 189 °C | Herbicidal effects Mo (monochoria (Mo)): 5 | Herbicidal effects Ec (barnyardgrass (Ec) [11]): 5 | Herbicidal effects Sc (bulrush (Sc)): 5

Cn1c(C(F)(F)F)ccc(-c2cc3[nH]c(=O)oc3cc2Cl)c1=O [Compound No. 3-20, 3-(6-chlorobenzoxazolin-2-on-5-yl)-1-methyl-6-trifluoromethyl-2(1H)-pyridone]
melting point: 263 to 265 °C

CCOC(=O)c1cc2c(-c3ccc(C(F)(F)F)n(C)c3=O)c(F)cc(Cl)c2o1 [Compound No. 4-6, 3-(7-chloro-2-ethoxycarbonyl-5-fluorobenzofuran-4-yl)-1-methyl-6-trifluoromethyl-2-(1H)-pyridone]
Herbicidal effects Ci (rice flatsedge (Ci) [1]; [15]): 5 | Herbicidal effects Ch [2, 15]: 5 | Herbicidal effects Am (slender amaranth (Am) [3]; [15]): 5 | Herbicidal effects Di (Diaitaria ciliaris (Di); [15]): 4 | Herbicidal effects Po (pale smartweed (Po) [4]; [15]): 5 | Herbicidal effects Ec (barnyardgrass (Ec) [5]; [15]): 5 | melting point: 118 to 120 °C | Herbicidal effects Mo (monochoria (Mo)): 5 | Herbicidal effects Ec (barnyardgrass (Ec) [11]): 5 | Herbicidal effects Sc (bulrush (Sc)): 5

CSCc1cc2c(-c3ccc(C(F)(F)F)n(C)c3=O)c(F)cc(Cl)c2o1 [Compound No. 4-44, 3-(7-chloro-5-fluoro-2-methylthiomethylbenzofuran-4-yl)-1-methyl-6-trifluoromethyl-2-(1H)-pyridone]
melting point: 169 to 171 °C

CCC(c1cc2c(-c3ccc(C(F)(F)F)n(C)c3=O)c(F)cc(Cl)c2o1)[S+](C)[O-] (stereo not drawn) [Compound No. 4-57, 3-[7-chloro-5-fluoro-2-(1-methylsulfinylpropyl)benzofuran-4-yl]-1-methyl-6-trifluoromethyl-2-(1H)-pyridone]
melting point: 125 to 127 °C

CCC(c1cc2c(-c3ccc(C(F)(F)F)n(C)c3=O)c(F)cc(Cl)c2o1)S(C)(=O)=O (stereo not drawn) [Compound No. 4-58, 3-[7-chloro-5-fluoro-2-(1-methylsulfonylpropyl)benzofuran-4-yl]-1-methyl-6-trifluoromethyl-2-(1H)-pyridone]
melting point: 146 to 148 °C

Cn1cc(-c2ccc(Cl)cc2Cl)c(=O)cc1C(F)(F)F [Compound No. 6-3, 5-(2,4-dichlorophenyl)-1-methyl-2-trifluoromethyl-4(1H)-pyridone]
melting point: 205 to 206 °C

CCOC(=O)c1c(C(F)(F)F)n(C)cc(-c2cc(OC(C)C)c(Cl)cc2F)c1=O [Compound No. 6-42, 5-(4-chloro-2-fluoro-5-isopropoxyphenyl)-3-ethoxycarbonyl-1-methyl-2-trifluoromethyl-4(1H)-pyridone]
melting point: 170 to 172 °C

CCOC(=O)c1c(C(F)(F)F)[nH]cc(-c2cc(OC(C)C)c(Cl)cc2F)c1=O [Compound No. 6-57, 5-(4-chloro-2-fluoro-5-isopropoxyphenyl)-3-ethoxycarbonyl-2-trifluoromethyl-4(1H)-pyridone]
melting point: 118 to 119 °C

Cn1c(C(F)(F)F)cc(Cl)c(-c2ccc(Cl)cc2)c1=O [Compound No. 11-1, 3-(4-chlorophenyl)-4-chloro-1-methyl-6-trifluoromethyl-2(1H)-pyridone]
melting point: 48 to 50 °C

Cn1c(C(F)(F)F)cc(F)c(-c2ccc(Cl)cc2)c1=O [Compound No. 11-2, 3-(4-chlorophenyl)-4-fluoro-1-methyl-6-trifluoromethyl-2(1H)-pyridone]
melting point: 120 to 122 °C

Cn1c(C(F)(F)F)cc(Cl)c(-c2ccc(Cl)c(NS(C)(=O)=O)c2)c1=O [Compound No. 11-3, 3-(4-chloro-3-methylsulfonylaminophenyl)-4-chloro-1-methyl-6-trifluoromethyl-2(1H)-pyridone]
melting point: 161 to 163 °C

Cn1c(C(F)(F)F)cc(=O)c(-c2ccc(Cl)cc2)c1Cl [Compound No. 13-1, 3-(4-chlorophenyl)-2-chloro-1-methyl-6-trifluoromethyl-4(1H)-pyridone]
melting point: 88 to 90 °C
